Results: US20160346249A1 (priority 2012, published 2016)
“And” between values parts separate entries of the source, which are not always exact repeats. Equal entries are not always repeated.

Legend:
[1] = 13-week mouse toxicity and toxicokinetic study; details: Crl:CD-1(ICR) BR, in vivo, 0 day
Description: For toxicology assessment ten mice of each gender were placed in each group.
Ophthalmic examinations were performed during Weeks −1 and 12.

[2] = Single dose 300 mg / 450 mg pharmacokinetic, safety and tolerability study in healthy male and female subjects; details: for Cmax / half-life / Tmax / AUC(0-t) / concentration at 0 h / concentration at 0.5 h / concentration at 1 h / concentration at 2 h / concentration at 3 h / concentration at 4 h / concentration at 6 h / concentration at 8 h / concentration at 10 h / concentration at 12 h / concentration at 18 h / concentration at 24 h / concentration at […]: human, plasma
Description: Fourteen subjects, divided equally between males and females, were enrolled in the study and randomized between test article (5/sex) and placebo (2/sex). […] All subjects met the inclusion and exclusion criteria for entry into the study as detailed in the protocol and signed an informed consent form.
The subjects were confined to the clinical study site from Day −1 to the morning of Day 2, when they underwent a brief physical examination, clinical laboratory tests, and a physician visit before they were discharged. On Day 7, they reported to the clinical site again and were confined to the site until the morning of Day 9. At that time, they underwent a complete physical examination, clinical laboratory tests, and a physician's visit before they were discharged from the study. All subjects were fasted overnight on Days −1 and 7 from approximately 22:00 to approximately 4 hours post-dose on Days 1 and 8, at which time they received a standard lunch.
Subjects that received the placebo (2/sex) ingested six identical looking capsules with no drug. […] Capsules on both days were ingested with 240 mL water. […] Samples were collected into lithium heparin-containing Vacutainers® and centrifuged at approximately 3000 rpm to obtain the plasma fraction. The plasma was split into two polypropylene tubes and stored at −20° C. […] The urine volumes were recorded and an aliquot was stored for drug concentration measurements.
Validated LC/MS/MS assays were used for analyses; the assay range for both analytes in plasma and urine were 5.00 to 2000 ng/mL.
Plasma concentration-time data for each subject were analyzed with WinNonlin, version 4.1 (Pharsight Corporation, Mountain View, Calif.) using a non-compartmental model. […] Plasma concentrations listed as not detected (ND) or below the lower limit of quantitation (LLOQ) were set to zero. The values of Cmax and Tmax were the observed values for each subject. AUC0-t was determined using the linear trapezoidal rule whenever the concentration data were increasing and the logarithmic trapezoidal rule any time that the concentration data were decreasing. The apparent λz was calculated as the negative slope of the log-linear terminal portion of the blood concentration-time curve using linear regression. To allow for accurate calculation of λz, a minimum of three observations, selected by WinNonlin, was used. The t½ was calculated as ln 2/λz. AUC0-t was extrapolated to infinity (AUC0-∞) as follows: AUC0-∞=AUC0-t+Clast/λz where Clast is the last quantifiable concentration. The apparent oral clearance (CL/F) was calculated as Dose/AUC0-∞. The apparent oral volume of distribution (Vz/F) was calculated as Dose/λz×AUC0-∞. The mean residence time from time zero to infinity (MRT0-∞) was calculated as AUMC0-∞/AUC0-∞.

For O=C1NCC2(c3ccc(Cl)c(Cl)c3)CC12 (stereo not drawn) [EB-10101, 5-(3,4-dichloro-phenyl)-3-aza-bicyclo[3.1.0]hexan-2-one], the “exposure to metabolite relative to parent drug” value [1] was 2-5 fold, the “AUC24-∞ as share of total exposure” value ([2]; 300 mg) was 38% and the “concentration at 24 hr as % of Cmax” value ([2]; 300 mg) was 50%. The “ingested dose in urine as lactam (0-24 hr)” value ([2]; 300 mg) was 0.075%, the “AUC24-∞ as share of total exposure” value ([2]; 450 mg) was 54% and the “concentration at 24 hr as % of Cmax” value ([2]; 450 mg) was 65%. The “ingested dose in urine as lactam (0-24 hr)” value ([2]; 450 mg) was 0.067%, the Cmax ([2]; both, oral, 300 mg) was 2030 ng/mL and the half-life ([2]; both, oral, 300 mg, harmonic mean of half-life of lactam) was 858 min. For the same molecule, the Cmax ([2]; both, oral, 450 mg) was 2950 ng/mL, the Tmax ([2]; both, oral, 450 mg) was 7.8 to 9 h and the half-life ([2]; both, oral, 450 mg, harmonic mean of half-life of lactam) was 1190 min. It also gave an AUC(0-t) ([2]; both, po, 300 mg) of 33300 ng·h/mL, a Cmax ([2]; both, po, 300 mg) of 2030 ng/mL and a Tmax ([2]; both, po, 300 mg) of 7.8 h. For the same molecule, the concentration at 0 h ([2]; both, po, 300 mg) was 0 ng/mL, the concentration at 0.5 h ([2]; both, po, 300 mg) was 42.8 ng/mL and the concentration at 1 h ([2]; both, po, 300 mg) was 296 ng/mL. It also gave a concentration at 2 h ([2]; both, po, 300 mg) of 900 ng/mL, a concentration at 3 h ([2]; both, po, 300 mg) of 1410 ng/mL and a concentration at 4 h ([2]; both, po, 300 mg) of 1540 ng/mL. For the same molecule, the concentration at 6 h ([2]; both, po, 300 mg) was 1690 ng/mL, the concentration at 8 h ([2]; both, po, 300 mg) was 1900 ng/mL and the concentration at 10 h ([2]; both, po, 300 mg) was 1830 ng/mL. The concentration at 12 h ([2]; both, po, 300 mg) was 1580 ng/mL, the concentration at 18 h ([2]; both, po, 300 mg) was 1390 ng/mL and the concentration at 24 h ([2]; both, po, 300 mg) was 1010 ng/mL. For the same molecule, the concentration at […] ([2]; both, po, 300 mg) was 1.52 ng/mL and 175 ng/mL and 473 ng/mL and 589 ng/mL, the half-life ([2]; both, po, 300 mg, t½ (Harmonic mean), single oral 300 mg DOV 21,947 HCl IR, N = 10) was 858 min and the half-life ([2]; both, po, 300 mg, t½, single oral 300 mg DOV 21,947 HCl IR, arithmetic mean, N = 10) was 924 min. It also gave an AUC(0-t) ([2]; both, po, 450 mg) of 50700 ng·h/mL, a Cmax ([2]; both, po, 450 mg) of 2950 ng/mL and a Tmax ([2]; both, po, 450 mg) of 9 h. It also gave a concentration at 0 h ([2]; both, po, 450 mg) of 0 ng/mL, a concentration at 0.5 h ([2]; both, po, 450 mg) of 71 ng/mL and a concentration at 1 h ([2]; both, po, 450 mg) of 337 ng/mL. The concentration at 2 h ([2]; both, po, 450 mg) was 1330 ng/mL, the concentration at 3 h ([2]; both, po, 450 mg) was 1820 ng/mL and the concentration at 4 h ([2]; both, po, 450 mg) was 2160 ng/mL. For the same molecule, the concentration at 6 h ([2]; both, po, 450 mg) was 2520 ng/mL, the concentration at 8 h ([2]; both, po, 450 mg) was 2670 ng/mL and the concentration at 10 h ([2]; both, po, 450 mg) was 2770 ng/mL. For the same molecule, the concentration at 12 h ([2]; both, po, 450 mg) was 2620 ng/mL, the concentration at 18 h ([2]; both, po, 450 mg) was 2010 ng/mL and the concentration at 24 h ([2]; both, po, 450 mg) was 1920 ng/mL. For the same molecule, the concentration at […] ([2]; both, po, 450 mg) was 0 ng/mL and 184 ng/mL and 646 ng/mL and 807 ng/mL, the half-life ([2]; both, po, 450 mg, t½ (Harmonic mean), single oral 450 mg DOV 21,947 HCl IR, N = 10) was 1190 min and the half-life ([2]; both, po, 450 mg, t½, single oral 450 mg DOV 21,947 HCl IR, arithmetic mean, N = 10) was 1960 min. For the same molecule, the AUC(0-t) ([2]; female, po, 300 mg) was 37300 ng·h/mL, the Cmax ([2]; female, po, 300 mg) was 2320 ng/mL and the Tmax ([2]; female, po, 300 mg) was 9.2 h. The concentration at 0 h ([2]; female, po, 300 mg) was 0 ng/mL, the concentration at 0.5 h ([2]; female, po, 300 mg) was 22.8 ng/mL and the concentration at 1 h ([2]; female, po, 300 mg) was 188 ng/mL. For the same molecule, the concentration at 2 h ([2]; female, po, 300 mg) was 760 ng/mL, the concentration at 3 h ([2]; female, po, 300 mg) was 1340 ng/mL and the concentration at 4 h ([2]; female, po, 300 mg) was 1600 ng/mL. It also gave a concentration at 6 h ([2]; female, po, 300 mg) of 1870 ng/mL, a concentration at 8 h ([2]; female, po, 300 mg) of 2210 ng/mL and a concentration at 10 h ([2]; female, po, 300 mg) of 1980 ng/mL. For the same molecule, the concentration at 12 h ([2]; female, po, 300 mg) was 1760 ng/mL, the concentration at 18 h ([2]; female, po, 300 mg) was 1690 ng/mL and the concentration at 24 h ([2]; female, po, 300 mg) was 1190 ng/mL. For the same molecule, the concentration at […] ([2]; female, po, 300 mg) was 0 ng/mL and 111 ng/mL and 317 ng/mL and 426 ng/mL, the half-life ([2]; female, po, 300 mg, t½ (Harmonic mean), single oral 300 mg DOV 21,947 HCl IR, N = 5) was 900 min and the half-life ([2]; female, po, 300 mg, t½, single oral 300 mg DOV 21,947 HCl IR, N = 5, arithmetic mean) was 930 min. For the same molecule, the AUC(0-t) ([2]; female, po, 450 mg) was 55300 ng·h/mL, the Cmax ([2]; female, po, 450 mg) was 3360 ng/mL and the Tmax ([2]; female, po, 450 mg) was 8.8 h. It also gave a concentration at 0 h ([2]; female, po, 450 mg) of 0 ng/mL, a concentration at 0.5 h ([2]; female, po, 450 mg) of 35.2 ng/mL and a concentration at 1 h ([2]; female, po, 450 mg) of 285 ng/mL.
